Assay results taken from ChEMBL document CHEMBL1128870, “Synthesis and anti-HIV activities of 2-deoxy-2,2-difluoro--L-ribofuranosyl-pyrimidine and -purine nucleosides” (Bioorg Med Chem Lett, 1995).

Assays:
[1] = In vitro anti-HIV activity against HIV-1 in human peripheral blood mononuclear (PBM) cells; assay type: functional
[2] = Cytotoxic activity against HIV-1 in peripheral blood mononuclear (PBM) cells; assay type: functional; conditions: Homo sapiens
[3] = tested on: Vero; assay: Cytotoxic activity against HIV-1 in rapidly dividing vero cells; assay type: functional, cell-based; conditions: Chlorocebus sabaeus

EC50 [1] [µM] | Compound | IC50 [2] [µM] | IC50 [3] [µM]
> 100 | CC(C)(C)[Si](C)(C)OC1[C@H](CO)O[C@H](n2ccc(N)nc2=O)C1(F)F (single isomer, unassigned) | > 100 | > 100
> 100 | CC(C)(C)[Si](C)(C)OC1[C@H](CO)O[C@@H](n2ccc(N)nc2=O)C1(F)F (single isomer, unassigned) | > 100 | > 100
> 100 | Nc1ncnc2c1ncn2[C@@H]1O[C@@H](CO)C(O)C1(F)F (single isomer, unassigned) | > 100 | > 100
3.4 | Nc1ncnc2c1ncn2[C@H]1O[C@@H](CO)C(O)C1(F)F (single isomer, unassigned) | > 100 | > 100
> 100 | Cc1cn([C@H]2O[C@@H](CO)C(O[Si](C)(C)C(C)(C)C)C2(F)F)c(=O)[nH]c1=O (single isomer, unassigned) | > 100 | > 100
> 100 | Cc1cn([C@@H]2O[C@@H](CO)C(O[Si](C)(C)C(C)(C)C)C2(F)F)c(=O)[nH]c1=O (single isomer, unassigned) | > 100 | > 100

Compound | EC50 [1] [µM] | IC50 [2] [µM] | IC50 [3] [µM]
Cc1cn([C@H]2C[C@H](N=[N+]=[N-])[C@@H](CO)O2)c(=O)[nH]c1=O [ZIDOVUDINE] | 0.004 | > 100 | 
